The source of these data is ChEMBL document CHEMBL1177773, “Design, synthesis and anticancer activity of piperazine hydroxamates and their histone deacetylase (HDAC) inhibitory activity” (Bioorg Med Chem Lett, 2010).

Where only a bound is given, the exact number is not on record here.

The subject of one experiment is U-251. The experiment is described as follows: Cytotoxicity against human U251 cells after 48 hrs by MTT assay. Type of experiment: functional. The conditions noted are these: for CC50: read-out: LC50 (the source's name). (In general: Tetrazolium dyes change colour on reduction, which living cells bring about.)
The test system of a further experiment is NCI-H460. The experiment is described as follows: Cytotoxicity against human NCI-H460 cells after 48 hrs by MTT assay. In kind it is functional. The note with it: for CC50: read-out: LC50 (the source's name).
The test system of another experiment is HCT-116. Nature of the experiment: Cytotoxicity against human HCT116 cells after 48 hrs by MTT assay. In kind it is functional. The conditions noted are these: for CC50: read-out: LC50 (the source's name).
The test system of a further experiment is HL-60. Nature of the experiment: Growth inhibition of human HL60 cells after 48 hrs. Type of experiment: functional, cell-based. The note with it: HL-60, 48 h.
In another experiment the target is T1, Histone deacetylase 8 (Homo sapiens, UniProt Q9BY41).
T1 sequence (Q9BY41 whole entry): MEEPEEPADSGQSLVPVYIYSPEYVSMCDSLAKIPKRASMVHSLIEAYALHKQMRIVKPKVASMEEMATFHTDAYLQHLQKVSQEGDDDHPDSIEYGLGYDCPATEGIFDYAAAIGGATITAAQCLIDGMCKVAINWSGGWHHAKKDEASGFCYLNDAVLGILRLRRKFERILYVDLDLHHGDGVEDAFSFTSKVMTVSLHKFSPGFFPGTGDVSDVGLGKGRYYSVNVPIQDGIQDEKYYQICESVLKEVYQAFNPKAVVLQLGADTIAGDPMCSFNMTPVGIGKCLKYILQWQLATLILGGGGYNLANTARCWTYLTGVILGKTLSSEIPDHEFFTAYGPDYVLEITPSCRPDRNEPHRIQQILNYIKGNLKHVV
The experiment is described as follows: Inhibition of human HDAC8.

Turning to `O=C1Nc2ccccc2/C1=N/NC(=S)N1CCN(C(=O)NO)CC1`, the GI50 with U-251 (Homo sapiens, U-251, 48 h) is above 100 µM; in the experiment with NCI-H460 (Homo sapiens, NCI-H460, 48 h), above 100 µM; in the experiment with HCT-116 (Homo sapiens, HCT-116, 48 h), above 100 µM. For the same compound, the CC50 was above 100 µM with U-251 (Homo sapiens, U-251, 48 h); above 100 µM in the experiment with NCI-H460 (Homo sapiens, NCI-H460, 48 h); above 100 µM in the experiment with HCT-116 (Homo sapiens, HCT-116, 48 h).

Take `O=C(NO)N1CCN(C(=S)N/N=C/c2c3ccccc3cc3ccccc23)CC1`: the GI50 was found to be 65 µM with U-251 (Homo sapiens, U-251, 48 h); 9.5 µM in the experiment on NCI-H460 (Homo sapiens, NCI-H460, 48 h); 70 µM in the experiment on HCT-116 (Homo sapiens, HCT-116, 48 h). Further, the CC50 with U-251 (Homo sapiens, U-251, 48 h) is above 100 µM; in the experiment with NCI-H460 (Homo sapiens, NCI-H460, 48 h), above 100 µM; in the experiment with HCT-116 (Homo sapiens, HCT-116, 48 h) it was above 100 µM.

As for `O=C(NO)N1CCN(C(=S)N/N=C/c2ccccc2O)CC1`, the GI50 in the experiment on U-251 (Homo sapiens, U-251, 48 h) worked out at 14.2 µM; in the experiment with NCI-H460 (Homo sapiens, NCI-H460, 48 h), 5.15 µM; in the experiment with HCT-116 (Homo sapiens, HCT-116, 48 h), 8.6 µM. In addition, the CC50 in the experiment with U-251 (Homo sapiens, U-251, 48 h) is above 100 µM; with NCI-H460 (Homo sapiens, NCI-H460, 48 h), above 100 µM; in the experiment with HCT-116 (Homo sapiens, HCT-116, 48 h), above 100 µM. The IC50 was 0.6 µM in the experiment on HL-60 and 33.7 µM on Histone deacetylase 8.

For the compound `O=C(NO)N1CCN(C(=S)N/N=C/c2ccc(Cl)cc2)CC1`, the GI50 with U-251 (Homo sapiens, U-251, 48 h) was 8.5 µM; in the experiment on NCI-H460 (Homo sapiens, NCI-H460, 48 h), 16 µM; in the experiment on HCT-116 (Homo sapiens, HCT-116, 48 h), 11.6 µM. Besides, the CC50 with U-251 (Homo sapiens, U-251, 48 h) is above 100 µM; in the experiment with NCI-H460 (Homo sapiens, NCI-H460, 48 h) it was above 100 µM; with HCT-116 (Homo sapiens, HCT-116, 48 h), above 100 µM. The same compound returned an IC50 against Histone deacetylase 8 of 43.2 µM.

Take `Cc1ccc(/C=N/NC(=S)N2CCN(C(=O)NO)CC2)cc1`: the GI50 in the experiment with U-251 (Homo sapiens, U-251, 48 h) was 27.5 µM; with NCI-H460 (Homo sapiens, NCI-H460, 48 h), 51 µM; in the experiment with HCT-116 (Homo sapiens, HCT-116, 48 h), 31 µM. Moreover, the CC50 with U-251 (Homo sapiens, U-251, 48 h) is above 100 µM; with NCI-H460 (Homo sapiens, NCI-H460, 48 h) it was above 100 µM; in the experiment with HCT-116 (Homo sapiens, HCT-116, 48 h), above 100 µM.

For the compound `O=C(NO)N1CCN(C(=S)N/N=C/c2ccccc2Cl)CC1`, the concentration for 50% growth inhibition (GI50) was determined as 13.5 µM with U-251 (Homo sapiens, U-251, 48 h); 30 µM with NCI-H460 (Homo sapiens, NCI-H460, 48 h); 11.5 µM in the experiment on HCT-116 (Homo sapiens, HCT-116, 48 h). For the same compound, the CC50 in the experiment on U-251 (Homo sapiens, U-251, 48 h) was above 100 µM; in the experiment on NCI-H460 (Homo sapiens, NCI-H460, 48 h), above 100 µM; in the experiment with HCT-116 (Homo sapiens, HCT-116, 48 h), above 100 µM.

Regarding `O=C(CCCCCCC(=O)Nc1ccccc1)NO` [VORINOSTAT], the GI50 was determined as 6.5 µM in the experiment on U-251 and 8 µM in the experiment with NCI-H460. Besides, the CC50 with U-251, in the experiment with NCI-H460 and with HCT-116 was above 100 µM in each case.

By GI50 is commonly meant the concentration giving 50% growth inhibition. A higher GI50 goes with lower sensitivity of the cells. A word on the IC50: it is the concentration that inhibits the measured activity by half. A low value points to greater potency.
